Test results reported in article PMC12596218 (Journal of Lipid Research, 2025).
pIC50: −log10 of the molar value. “And” between values parts separate entries of the source, which are not always exact repeats. Equal entries are not always repeated.

How the values were obtained:
OATP1B1 = biological target: T1, OATP1B1 (Homo sapiens, UniProt Q9Y6L6); experiment: [3H]E1S transport inhibition assay in OATP1B1-HEK293 cells; format: cell-based; details: 200 nM [3H]E1S, 10 min; two independent experiments
T1 construct: stably transfected with the full open reading frames of human NTCP, ASBT, SOAT, OATP1B1, OATP1B3, OATP2B1, and murine Asbt (mAsbt); expressed in transfected cells; host or cells: HEK293, stably transfected (OATP1B1-HEK), tetracycline-induced
T1 sequence (Q9Y6L6 1-691): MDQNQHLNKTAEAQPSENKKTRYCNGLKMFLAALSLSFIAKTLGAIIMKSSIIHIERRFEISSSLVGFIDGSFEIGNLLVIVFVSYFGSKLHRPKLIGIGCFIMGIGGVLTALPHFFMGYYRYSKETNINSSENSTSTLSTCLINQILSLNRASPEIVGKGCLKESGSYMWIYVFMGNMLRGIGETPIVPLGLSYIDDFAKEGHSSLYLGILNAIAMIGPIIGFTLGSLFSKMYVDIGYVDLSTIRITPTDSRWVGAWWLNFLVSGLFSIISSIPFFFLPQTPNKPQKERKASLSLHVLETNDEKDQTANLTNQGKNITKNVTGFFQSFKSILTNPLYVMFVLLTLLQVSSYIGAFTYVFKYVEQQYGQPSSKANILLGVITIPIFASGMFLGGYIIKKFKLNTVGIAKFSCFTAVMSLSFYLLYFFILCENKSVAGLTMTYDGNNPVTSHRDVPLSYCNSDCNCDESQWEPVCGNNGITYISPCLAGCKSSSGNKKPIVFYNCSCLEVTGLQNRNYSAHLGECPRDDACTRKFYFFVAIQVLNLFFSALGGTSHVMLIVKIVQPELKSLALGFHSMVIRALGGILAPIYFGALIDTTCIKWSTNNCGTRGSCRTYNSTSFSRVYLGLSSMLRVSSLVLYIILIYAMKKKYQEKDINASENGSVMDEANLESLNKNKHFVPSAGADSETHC
Text: Human embryonic kidney HEK293 cells, stably transfected with the full open reading frames of human NTCP, ASBT, SOAT, OATP1B1, OATP1B3, OATP2B1, and murine Asbt (mAsbt) were used as reported ([18], [20], [21], [22], [23]). The NTCP, ASBT, and mAsbt constructs were C-terminally tagged with the FLAG epitope, and the SOAT construct was C-terminally tagged with green fluorescent protein. Non-transfected Flp-In HEK293 cells (Thermo Fisher Scientific) served as the control. All cell lines were maintained at 37°C, 5% CO2 and 95% humidity in DMEM/F-12 medium (Thermo Fisher Scientific) supplemented with 10% fetal calf serum (Sigma-Aldrich), 4 mM L-glutamine (PAA) and penicillin/streptomycin (PAA). Expression of the respective carrier protein was induced by tetracycline treatment at 1 μg/ml (Carl Roth GmbH + Co. KG).
(§1) Cells were seeded onto poly-L-lysine-coated 96-well plates, induced with 1 μg/ml tetracycline, and grown to confluence over 72 h at 37°C. Then, cells were washed with tempered (37°C) phosphate-buffered saline (PBS, containing 137.0 mM NaCl, 2.7 mM KCl, 1.5 mM KH2PO4, and 7.3 mM Na2HPO4, at pH 7.4) and preincubated with 80 μl sodium transport buffer (STB, containing 142.9 mM NaCl, 4.7 mM KCl, 1.2 mM MgSO4, 1.2 mM KH2PO4, 1.8 mM CaCl2, and 20.0 mM HEPES, at pH 7.4) for 5 min at 37°C. For inhibition studies, the medium was replaced by 80 μl STB containing the respective inhibitor or solvent alone and cells were further incubated for 5 min at 37°C. Transport experiments were started by adding 20 μl of a 5-fold concentrated substrate solution (solved in STB). For transport experiments under sodium-free conditions the same buffer composition was used as for STB, but sodium chloride was substituted with equimolar concentrations of choline chloride as previously reported ([20], [24]). Transport experiments were stopped by washing twice with ice-cold PBS and the plates were kept cool on ice until adding the lysis buffer [1% sodium dodecyl sulfate (SDS) and 1 N NaOH]. Then, the cell-associated radioactivity of the respective tritium-labeled substrate or ligand was quantified by liquid scintillation counting using MicroScint-20 scintillation cocktail (Revvity) in a Packard Microplate Scintillation Counter TopCount NXT (Packard Instrument Company). For IC50 transport inhibition measurements, the mean uptake values measured in non-carrier-expressing HEK293 control cells were defined as 0% uptake control and were subtracted from all other values. Values from cells without inhibitor and solvent alone were set to 100%. Finally, all net transport data were expressed as uptake or binding as % of control. All transport or inhibition graphs were generated with GraphPad Prism 6 (GraphPad). Determination of half maximal inhibitory concentrations (IC50) was done by nonlinear regression analysis using the equation log (inhibitor) versus response—variable slope settings. All data points of the IC50 curves represent means ± SD of quadruplicate determinations. For Km measurements, BS uptake in the absence of sodium was regarded as carrier-independent unspecific uptake and was subtracted from the transport rates in the presence of sodium to obtain carrier-specific uptake rates (indicated as dashed lines). From the specific uptake rates, Michaelis Menten Km values were calculated by non-linear regression analysis.

NTCP M290S (NTCP→ASBT) = biological target: T2, NTCP M290S (NTCP→ASBT) (Homo sapiens, UniProt Q14973, M290S); experiment: [3H]TC transport and inhibition assay, NTCP→ASBT mutant in HEK293 cells; format: cell-based; details: 1 μM [3H]TC, 10 min
T2 construct: stably transfected with the full open reading frames of human NTCP, ASBT, SOAT, OATP1B1, OATP1B3, OATP2B1, and murine Asbt (mAsbt); expressed in transfected cells; host or cells: HEK293, stably transfected
T2 sequence (Q14973 1-349 M290S): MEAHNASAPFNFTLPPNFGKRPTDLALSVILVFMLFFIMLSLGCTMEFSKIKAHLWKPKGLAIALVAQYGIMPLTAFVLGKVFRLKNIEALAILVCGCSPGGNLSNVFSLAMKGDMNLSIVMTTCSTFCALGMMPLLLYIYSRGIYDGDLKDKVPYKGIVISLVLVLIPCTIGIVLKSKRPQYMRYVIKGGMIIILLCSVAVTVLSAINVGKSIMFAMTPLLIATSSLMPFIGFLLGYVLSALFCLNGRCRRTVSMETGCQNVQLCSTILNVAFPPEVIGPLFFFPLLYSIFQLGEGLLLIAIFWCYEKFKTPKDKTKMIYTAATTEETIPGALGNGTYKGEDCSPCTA
Protocol: Amplification was performed on a peqSTAR XS PEQLAB PCR cycler (Peqlab) with Pfu DNA polymerase (M774A; Promega) in 18 cycles under the following conditions: initial denaturation for 2 min at 95°C, denaturation for 30 s at 95°C, annealing for 1 min at 55°C, extension for 8 min and 30 s at 72°C, final elongation for 10 min at 72°C and final hold at 4°C. After amplification, the products were digested with DpnI (ER1701; Thermo Fisher Scientific) for 1 h at 37°C and transformed into TOP10 chemically competent E. coli (Thermo Fisher Scientific). Plasmids were isolated using a GeneJET Plasmid Miniprep Kit (Thermo Fisher Scientific) according to the manufacturer's protocol, and the generated point mutations were verified by DNA sequencing (Seqlab Microsynth).
as §1

Structure (SMILES)	pIC50 (OATP1B1)	Inhibition curves and AUC of NTCP→ASBT mutant compared to wild-type NTCP (NTCP M290S (NTCP→ASBT))
CCCCC1(CCCC)CN(c2ccccc2)c2cc(SC)c(OCC(=O)N[C@@H](C(=O)N[C@@H](CC)C(=O)O)c3ccc(O)cc3)cc2S(=O)(=O)N1 [odevixibat]	5.40 and 5.80	did not significantly change
CCCC[C@]1(CC)CS(=O)(=O)c2cc(CNC(CC(=O)O)CC(=O)O)c(OC)cc2[C@@H](c2ccccc2)N1 [linerixibat]	< 5.00 and 4.54 and 4.92	still inactive

Next, values leading:

pIC50 (OATP1B1)	Inhibition curves and AUC of NTCP→ASBT mutant compared to wild-type NTCP (NTCP M290S (NTCP→ASBT))	Structure (SMILES)
5.35 and 5.36	did not significantly change	CCCCC1(CCCC)CN(c2ccccc2)c2cc(SC)c(OCC(=O)N[C@@H](C(=O)NCC(=O)O)c3ccccc3)cc2S(=O)(=O)C1 [elobixibat]
5.05 and 5.08	did not significantly change	CCCCC1(CCCC)CS(=O)(=O)c2ccc(N(C)C)cc2[C@@H](c2ccc(OCc3ccc(C[N+]45CCN(CC4)CC5)cc3)cc2)[C@H]1O [maralixibat]
< 5.00 and 4.38 and 4.51	still inactive	CCCCC1(CCCC)CS(=O)(=O)c2ccc(N(C)C)cc2[C@@H](c2ccc(OCCCC[N+]34CCN(CC3)CC4)cc2)[C@H]1O [SC-435]
